We go through 55 compounds from US12098151B2 (priority 2018, dated 2024).

The structures appear in SMILES notation. Like-named read-outs stand apart in the source and are kept apart here. Where only a bound is given, the exact number is not on record here.

As a reminder, the EC50 is the midpoint of the concentration-response curve.

The subject of one assay is Junin virus. Description: microbe, parasite or virus in culture. In kind it is cell-based.
Another assay deals with LCMV. Nature of the assay: microbe, parasite or virus in culture. In kind it is cell-based, lymphocytic choriomeningitis virus (LCMV).
Setting [1] is: Mammarenavirus juninense, HEK-293T, 96 h.
Where [2] appears, read: Mammarenavirus choriomeningitidis, KB, 96 h.

On to `CC(C)N1CN(C2c3ccccc3C3C(c4ccccc42)C3(F)F)n2cc(C(=O)O)c(=O)c(O)c2C1=O` (single isomer, unassigned) [III-010], for which the EC50 came out at 10 nM in the assay on Junin virus (setting [1]) and 9.9 nM in the assay with LCMV (setting [2]).
Consider `O=C(O)c1cn2c(c(O)c1=O)C(=O)N1CCOC[C@H]1N2[C@@H]1c2ccccc2SCc2c1ccc(F)c2F` [Compound I-001], for which the EC50 worked out at 111 nM in the assay with Junin virus (read-out: EC50) and 115 nM in the assay with LCMV (read-out: EC50).
As to `C[C@@H](N1CN([C@H]2c3ccccc3CSc3ccccc32)n2cc(C(=O)O)c(=O)c(O)c2C1=O)C(F)(F)F` [Compound I-004], the EC50 in the assay on Junin virus (setting [1]) is 15 nM; in the assay on LCMV (setting [2]) it was 12 nM.
Take `CCN1CN(C(c2ccccc2)c2ccccc2)n2cc(C(=O)O)c(=O)c(O)c2C1=O` [Compound I-005]: the EC50 in the assay with Junin virus (setting [1]) was determined as 28 nM; in the assay on LCMV (setting [2]), 53 nM.
Take `CC1N(C)C(=O)c2c(O)c(=O)c(C(=O)O)cn2N1C(c1ccccc1)c1ccccc1` (stereo not shown) [Compound I-006]: the EC50 in the assay with Junin virus (setting [1]) came to 36 nM; in the assay on LCMV (setting [2]), 136 nM.
Consider `CCN1C(=O)c2c(O)c(=O)c(C(=O)O)cn2C(C(c2ccccc2)c2ccccc2)N1CC` (stereo not shown) [Compound I-007], for which the EC50 stood at 138 nM with Junin virus (setting [1]) and 65 nM in the assay on LCMV (setting [2]).
For `CN1CN(C(c2ccccc2)c2ccccc2)n2cc(C(=O)O)c(=O)c(O)c2C1=O` [Compound I-008], in that order: 239 nM and 205 nM.
Turning to `CN1C(=O)c2c(O)c(=O)c(C(=O)O)cn2C(C(c2ccccc2)c2ccccc2)N1C` (stereo not shown) [Compound I-009], the EC50 in the assay on Junin virus (setting [1]) was 405 nM; in the assay with LCMV (setting [2]), 143 nM.
In the case of `CCN1CN(Cc2ccc(-c3ccccc3)cc2)n2cc(C(=O)O)c(=O)c(O)c2C1=O` [Compound I-010], the EC50 with Junin virus (setting [1]) amounted to 579 nM; with LCMV (setting [2]), 328 nM.
In the case of `CC1Nn2cc(C(=O)O)c(=O)c(O)c2C(=O)N1C` (stereo not shown) [Compound I-011], the figures for the EC50 in the assay on Junin virus (setting [1]) and with LCMV (setting [2]) were 1670 nM and 1930 nM, respectively.
`COCCN1C[C@H](C(c2ccccc2)c2ccccc2)n2cc(NC(=O)OC)c(=O)c(O)c2C1=O` [Compound I-012] had a half-maximal effective concentration (EC50) in the assay on Junin virus (setting [1]) of 3000 nM.
On to `CC(C)N1CN(C2c3ccccc3CSc3ccccc32)n2cc(C(=O)O)c(=O)c(O)c2C1=O` (stereo not shown) [Compound I-019], for which the EC50 in the assay with Junin virus is 6.9 nM; in the assay with LCMV, 2.2 nM.
For the compound `O=C(O)c1cn2c(c(O)c1=O)C(=O)N(Cc1ccc(F)cc1F)C[C@@H]2C(c1ccccc1)c1ccccc1` [Compound I-020], the EC50 amounted to 7.1 nM in the assay with Junin virus (setting [1]) and 5.9 nM in the assay with LCMV (setting [2]).
For `COCCN1C(=O)c2c(O)c(=O)c(C(=O)O)cn2N(C2c3ccccc3CCc3ccccc32)C1CCSC` (stereo not shown) [Compound I-022], the figures for the EC50 in the assay with Junin virus (setting [1]) and in the assay on LCMV (setting [2]) were 10 nM and 1.6 nM, respectively.
Regarding `O=C(O)c1cn2c(c(O)c1=O)C(=O)N(Cc1cccc(Cl)c1F)C[C@@H]2C(c1ccccc1)c1ccccc1` [Compound I-023], the EC50 in the assay on Junin virus (setting [1]) was found to be 11 nM; in the assay with LCMV (setting [2]), 2.2 nM.
For `CC(C)=CCN1C[C@H](C(c2ccccc2)c2ccccc2)n2cc(C(=O)O)c(=O)c(O)c2C1=O` [Compound I-024], in that order: 12 nM and 14 nM.
For the compound `O=C(O)c1cn2c(c(O)c1=O)C(=O)N(Cc1ccccn1)C[C@@H]2C(c1ccccc1)c1ccccc1` [Compound I-025], the EC50 was determined as 13 nM in the assay with Junin virus (setting [1]) and 5 nM in the assay on LCMV (setting [2]).
Consider `O=C(O)c1cn2c(c(O)c1=O)C(=O)N(CC1CCCCO1)C[C@@H]2C(c1ccccc1)c1ccccc1` (stereo partly shown) [Compound I-026], for which the EC50 stood at 17 nM in the assay on Junin virus (setting [1]) and 6.9 nM in the assay on LCMV (setting [2]).
On to `Cc1cc(CN2C[C@H](C(c3ccccc3)c3ccccc3)n3cc(C(=O)O)c(=O)c(O)c3C2=O)no1` [Compound I-027], for which the 50% effective concentration (EC50) was 19 nM in the assay with Junin virus (setting [1]) and 9.4 nM in the assay with LCMV (setting [2]).
For `O=C(O)c1cn2c(c(O)c1=O)C(=O)N(CC1CC1)C[C@@H]2C(c1ccccc1)c1ccccc1` [Compound I-028], the figures for the EC50 with Junin virus (setting [1]) and with LCMV (setting [2]) were 40 nM and 13 nM, respectively.
For `CN1C[C@H](C2c3ccccc3CSc3ccccc32)n2cc(C(=O)O)c(=O)c(O)c2C1=O` (stereo partly shown) [Compound I-029], in that order: 42 nM and under 31 nM.
As to `O=C(O)c1cn2c(c(O)c1=O)C(=O)N(Cc1cccnc1)C[C@@H]2C(c1ccccc1)c1ccccc1` [Compound I-030], the concentration giving a half-maximal response (EC50) with Junin virus (setting [1]) amounted to 44 nM; in the assay with LCMV (setting [2]), 31 nM.
Regarding `CCCC(C)N1C[C@H](C(c2ccccc2)c2ccccc2)n2cc(C(=O)O)c(=O)c(O)c2C1=O` (stereo partly shown) [Compound I-031], the EC50 with Junin virus (setting [1]) stood at 45 nM; in the assay with LCMV (setting [2]), 20 nM.
Turning to `CCCN1C[C@H](C(c2ccccc2)c2ccccc2)n2cc(C(=O)O)c(=O)c(O)c2C1=O` [Compound I-032], the EC50 in the assay with Junin virus (setting [1]) was determined as 64 nM; in the assay with LCMV (setting [2]), 18 nM.
For `CCC(C)N1C[C@H](C(c2ccccc2)c2ccccc2)n2cc(C(=O)O)c(=O)c(O)c2C1=O` (stereo partly shown) [Compound I-033], in that order: 68 nM and 15 nM.
In the case of `O=C(O)c1cn2c(c(O)c1=O)C(=O)N(CC1CCOCC1)C[C@@H]2C(c1ccccc1)c1ccccc1` [Compound I-034], the 50% effective concentration (EC50) in the assay with Junin virus (setting [1]) worked out at 68 nM; with LCMV (setting [2]) it was 32 nM.
For `CC(C)OCCN1C[C@H](C(c2ccccc2)c2ccccc2)n2cc(C(=O)O)c(=O)c(O)c2C1=O` [Compound I-035], the EC50 is 71 nM in the assay on Junin virus (setting [1]) and under 6 nM in the assay with LCMV (setting [2]).
The corresponding values for `COCCN1C(=O)c2c(O)c(=O)c(C(=O)O)cn2C[C@H]1C(c1ccccc1)c1ccccc1` [Compound I-036] are 74 nM and 69 nM.
The corresponding values for `CC(C)N1C[C@H](C(c2ccccc2)c2ccccc2)n2cc(C(=O)O)c(=O)c(O)c2C1=O` [Compound I-037] are 82 nM and 24 nM.
For the compound `CCOCCN1C[C@H](C(c2ccccc2)c2ccccc2)n2cc(C(=O)O)c(=O)c(O)c2C1=O` [Compound I-038], the figures for the EC50 in the assay with Junin virus (setting [1]) and in the assay with LCMV (setting [2]) were 148 nM and 28 nM, respectively.
As to `COCCN1C[C@H](C(c2ccccc2)c2ccccc2)n2cc(C(=O)O)c(=O)c(O)c2C1=O` [Compound I-039], the figures for the EC50 with Junin virus (setting [1]) and in the assay with LCMV (setting [2]) were 240 nM and 17 nM, respectively.
Regarding `C#CCN1C[C@H](C(c2ccccc2)c2ccccc2)n2cc(C(=O)O)c(=O)c(O)c2C1=O` [Compound I-040], the EC50 in the assay with Junin virus (setting [1]) turned out to be 173 nM; in the assay with LCMV (setting [2]), 44 nM.
For `O=C(O)c1cn2c(c(O)c1=O)C(=O)N(Cc1ccccc1)C[C@@H]2C(c1ccccc1)c1ccccc1` [Compound I-041], in that order: 180 nM and 6.2 nM.
As to `CN1C(=O)c2c(O)c(=O)c(C(=O)O)cn2C[C@H]1C(c1ccccc1)c1ccccc1` [Compound I-042], the half-maximal effective concentration (EC50) in the assay with Junin virus (setting [1]) was determined as 255 nM; in the assay on LCMV (setting [2]), 58 nM.
On to `O=C(O)c1cn2c(c(O)c1=O)C(=O)N1CCCCN1C2C(c1ccccc1)c1ccccc1` (stereo not shown) [Compound I-043], for which the values for the EC50 in the assay with Junin virus (setting [1]) and in the assay with LCMV (setting [2]) were 281 nM and 119 nM, respectively.
Regarding `COCCCN1C[C@H](C(c2ccccc2)c2ccccc2)n2cc(C(=O)O)c(=O)c(O)c2C1=O` [Compound I-044], the EC50 in the assay with Junin virus (setting [1]) was determined as 354 nM; with LCMV (setting [2]) it was 40 nM.
For `COCCN1C[C@H](C(c2ccccc2)c2ccccc2)n2cc(C(=O)O)c(=O)c(O)c2C1=O` [Compound I-045], the EC50 amounted to 374 nM in the assay with Junin virus and 24 nM in the assay with LCMV.
As for `CN1C[C@H](C(c2ccccc2)c2ccccc2)n2cc(C(=O)O)c(=O)c(O)c2C1=O` [Compound I-046], the EC50 stood at 382 nM in the assay with Junin virus (setting [1]) and 69 nM in the assay on LCMV (setting [2]).
As for `O=C(O)c1cn2c(c(O)c1=O)C(=O)N1CCCO[C@H]1[C@@H]2C(c1ccccc1)c1ccccc1` [Compound I-047], the EC50 in the assay with Junin virus (setting [1]) is 414 nM; in the assay with LCMV (setting [2]), 372 nM.
As for `O=C(O)c1cn2c(c(O)c1=O)C(=O)N(CCOc1ccc(F)cc1)C[C@@H]2C(c1ccccc1)c1ccccc1` [Compound I-048], the EC50 in the assay with Junin virus (setting [1]) amounted to 518 nM; in the assay on LCMV (setting [2]) it was 56 nM.
As to `O=C(O)c1cn2c(c(O)c1=O)C(=O)N(CC(F)(F)F)C[C@@H]2C(c1ccccc1)c1ccccc1` [Compound I-049], the EC50 in the assay on Junin virus (setting [1]) turned out to be 620 nM; with LCMV (setting [2]), 160 nM.
In the case of `O=C(O)c1cn2c(c(O)c1=O)C(=O)N1CCCO[C@@H]1[C@@H]2C(c1ccccc1)c1ccccc1` [Compound I-050], the midpoint of the response in the assay on Junin virus (setting [1]), the EC50, lay at 640 nM.
Turning to `O=C(O)c1cn2c(c(O)c1=O)C(=O)N(Cc1ccccc1)CC2Cc1ccccc1` (stereo not shown) [Compound I-051], the results for the EC50 in the assay with Junin virus (setting [1]) and in the assay on LCMV (setting [2]) were 739 nM and 722 nM, respectively.
In the assay on Junin virus (setting [1]), `O=C(O)c1cn2c(c(O)c1=O)C(=O)N(Cc1ccc(F)cc1)CN2Cc1ccc(-c2ccccc2)cc1` [Compound I-052] registered an EC50 of 751 nM.
As to `O=C(O)c1cn2c(c(O)c1=O)C(=O)NC[C@@H]2C(c1ccccc1)c1ccccc1` [Compound I-053], the results for the EC50 in the assay on Junin virus (setting [1]) and in the assay with LCMV (setting [2]) were 987 nM and 275 nM, respectively.
In the case of `CC(C)N1CC(Cc2ccccc2)n2cc(C(=O)O)c(=O)c(O)c2C1=O` (stereo not shown) [Compound I-055], in the assay on Junin virus (setting [1]), the EC50 came out at 1870 nM.
The compound `COCCN1C[C@H](CC2CCCCC2)n2cc(C(=O)O)c(=O)c(O)c2C1=O` [Compound I-056] returned a concentration giving a half-maximal response (EC50) in the assay on Junin virus (setting [1]) of 2030 nM.
Take `O=C(O)c1cn2c(c(O)c1=O)C(=O)N[C@H](C(c1ccccc1)c1ccccc1)C2` [Compound I-059]: the response with LCMV (setting [2]) was half-maximal at 772 nM (EC50).
Same read-out and setting: for `O=C(O)c1cn2c(c(O)c1=O)C(=O)N1CCCO[C@H]1[C@@H]2Cc1ccccc1` [Compound I-062] the value was 2410 nM; for `O=C(O)CN1C[C@H](C(c2ccccc2)c2ccccc2)n2cc(C(=O)O)c(=O)c(O)c2C1=O` [Compound I-063], 280 nM; for `CCOC(=O)c1cn2c(c(O)c1=O)C(=O)N(CCOC)C[C@@H]2C(c1ccccc1)c1ccccc1` [Compound I-066], 250 nM.
In the case of `CCN1CN(C(c2ccccc2)c2ccccc2)n2c(C)c(C(=O)O)c(=O)c(O)c2C1=O` [Compound I-072], the EC50 with Junin virus (read-out: EC50) amounted to 14 nM.
For `CCN1CN(Cc2ccc(-c3ccccc3OC)s2)n2c(C)c(C(=O)O)c(=O)c(O)c2C1=O` [Compound I-073], the EC50 with Junin virus (read-out: EC50) was 65 nM.
`CCN(CC)CCN1CN(C2c3ccccc3CCc3ccccc32)n2cc(C(=O)O)c(=O)c(O)c2C1=O` [III-022]: the EC50 in the assay on LCMV (setting [2]) is over 1000 nM.
In the case of `CC(C)N1CN(Cc2ccccc2)n2cc(C(=O)O)c(=O)c(O)c2C1=O` [III-026], the EC50 with LCMV (setting [2]) was over 1000 nM.
